Biological target: T1, human CYP1A2 (Homo sapiens, UniProt P05177)
T1 sequence (P05177 1-516): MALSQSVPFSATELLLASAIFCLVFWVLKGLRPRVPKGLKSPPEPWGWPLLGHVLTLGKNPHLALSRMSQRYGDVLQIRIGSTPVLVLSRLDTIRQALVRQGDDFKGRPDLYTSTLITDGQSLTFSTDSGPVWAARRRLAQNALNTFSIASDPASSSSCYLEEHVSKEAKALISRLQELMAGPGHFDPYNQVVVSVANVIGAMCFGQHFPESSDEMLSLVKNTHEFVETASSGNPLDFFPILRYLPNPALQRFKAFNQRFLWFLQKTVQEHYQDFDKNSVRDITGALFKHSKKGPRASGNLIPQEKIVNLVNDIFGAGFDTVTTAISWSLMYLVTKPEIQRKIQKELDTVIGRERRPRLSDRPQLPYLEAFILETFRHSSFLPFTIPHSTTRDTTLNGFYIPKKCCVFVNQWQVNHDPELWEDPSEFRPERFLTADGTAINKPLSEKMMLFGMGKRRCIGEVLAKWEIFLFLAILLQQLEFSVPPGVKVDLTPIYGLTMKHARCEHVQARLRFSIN
Experiment: not given
Settings: not given

SMILES	AC50 [µM]	CYP1A2 AC50 (half-maximal activity concentration)
c1ccc(SCCSc2ccccc2)cc1 [1,2-Bis(phenylthio)ethane]	29.2	–
O=C(O)c1ccc(OCCCOc2ccc(C(=O)O)cc2)cc1 [1,3-Bis(4-carboxyphenoxy)propane]	–	Inactive
C=C(C)C(=O)OCCCCCCOC(=O)C(=C)C [1,6-Hexanediol dimethacrylate]	37	–
C=C(C)C(=O)OCCCCCCCCCCOC(=O)C(=C)C [1,10-Decanediol dimethacrylate]	40.1	–
BrCc1cccc(Oc2ccccc2)c1 [1-(Bromomethyl)-3-phenoxybenzene]	41.5	–
CCCCCCCCS(=O)(=O)Cl [1-Octanesulfonyl chloride]	–	Inactive
O=C1NC(=O)c2cccc3cccc1c23 [1H-Benzo[de]isoquinoline-1,3(2H)-dione]	2.74	–
COC(OC)(C(=O)c1ccccc1)c1ccccc1 [2,2-Dimethoxy-1,2-diphenylethanone]	–	Inactive
O=C(c1ccc(O)c(O)c1)c1ccc(O)cc1O [2,3',4,4'-Tetrahydroxybenzophenone]	34.3	–
O=C(O)c1cc2ccccc2nc1C(=O)O [2,3-Quinolinedicarboxylic acid]	47.9	–
O=C(c1ccc(O)cc1)c1ccc(O)cc1O [2,4,4'-Trihydroxybenzophenone]	34.3	–
CC(=O)c1ccc(O)cc1 [4-Hydroxyacetophenone]	–	Inconclusive inhibitor
NS(=O)(=O)c1cc2c(cc1Cl)CN(C1CCCCC1)C2=O [Chlorexolone]	–	Inactive
Cc1cc2c(cc1S(N)(=O)=O)S(=O)(=O)CCC2 [Meticrane]	–	Inactive
CCC(=O)c1ccc(O)cc1 [Paroxypropione]	–	Inconclusive inhibitor
Cc1cc(C)nc(NS(=O)(=O)c2ccc(N)cc2)n1 [Sulfamethazine]	–	Inconclusive inhibitor

Biological target: human CYP2D6 (Homo sapiens, UniProt P10635)
Sequence (P10635 whole entry): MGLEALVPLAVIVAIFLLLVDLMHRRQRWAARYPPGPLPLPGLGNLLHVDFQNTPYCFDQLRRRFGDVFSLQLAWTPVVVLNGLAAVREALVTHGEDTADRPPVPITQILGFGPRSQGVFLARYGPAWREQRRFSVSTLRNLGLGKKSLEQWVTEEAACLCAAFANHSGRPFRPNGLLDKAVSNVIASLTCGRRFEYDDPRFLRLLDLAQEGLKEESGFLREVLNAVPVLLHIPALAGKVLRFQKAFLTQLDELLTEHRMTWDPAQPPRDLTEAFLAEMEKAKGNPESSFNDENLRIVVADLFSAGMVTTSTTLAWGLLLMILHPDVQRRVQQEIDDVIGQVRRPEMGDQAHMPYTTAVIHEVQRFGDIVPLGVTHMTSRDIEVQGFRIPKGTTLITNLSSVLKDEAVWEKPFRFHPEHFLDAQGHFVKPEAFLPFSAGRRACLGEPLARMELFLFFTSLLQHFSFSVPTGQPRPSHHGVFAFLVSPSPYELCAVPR
Experiment: not given
Settings: not given

SMILES	AC50 [µM]	CYP2D6 AC50 (half-maximal activity concentration)
c1ccc(SCCSc2ccccc2)cc1 [1,2-Bis(phenylthio)ethane]	56.1	–
O=C(O)c1ccc(OCCCOc2ccc(C(=O)O)cc2)cc1 [1,3-Bis(4-carboxyphenoxy)propane]	8.08	–
C=C(C)C(=O)OCCCCCCOC(=O)C(=C)C [1,6-Hexanediol dimethacrylate]	–	Inactive
O=[N+]([O-])c1cccc2cccc([N+](=O)[O-])c12 [1,8-Dinitronaphthalene]	–	Inconclusive inhibitor
C=C(C)C(=O)OCCCCCCCCCCOC(=O)C(=C)C [1,10-Decanediol dimethacrylate]	37	–
BrCc1cccc(Oc2ccccc2)c1 [1-(Bromomethyl)-3-phenoxybenzene]	50.3	–
CCCCCCCCS(=O)(=O)Cl [1-Octanesulfonyl chloride]	–	Inconclusive inhibitor
O=C1NC(=O)c2cccc3cccc1c23 [1H-Benzo[de]isoquinoline-1,3(2H)-dione]	–	Inactive
COC(OC)(C(=O)c1ccccc1)c1ccccc1 [2,2-Dimethoxy-1,2-diphenylethanone]	34.6	–
O=C(c1ccc(O)c(O)c1)c1ccc(O)cc1O [2,3',4,4'-Tetrahydroxybenzophenone]	7.5	–
O=C(O)c1cc2ccccc2nc1C(=O)O [2,3-Quinolinedicarboxylic acid]	–	Inactive
O=C(c1ccc(O)cc1)c1ccc(O)cc1O [2,4,4'-Trihydroxybenzophenone]	33	–
CC(=O)c1ccc(O)cc1 [4-Hydroxyacetophenone]	–	Inactive
NS(=O)(=O)c1cc2c(cc1Cl)CN(C1CCCCC1)C2=O [Chlorexolone]	–	Inactive
NS(=O)(=O)c1cc2c(cc1Cl)NCNS2(=O)=O [Hydrochlorothiazide]	–	Inactive
Cc1cc2c(cc1S(N)(=O)=O)S(=O)(=O)CCC2 [Meticrane]	–	Inactive
CCC(=O)c1ccc(O)cc1 [Paroxypropione]	–	Inactive
Cc1cc(C)nc(NS(=O)(=O)c2ccc(N)cc2)n1 [Sulfamethazine]	–	Inactive

Biological target: T2, human CYP2C9 (Homo sapiens, UniProt P11712)
T2 sequence (P11712 whole entry): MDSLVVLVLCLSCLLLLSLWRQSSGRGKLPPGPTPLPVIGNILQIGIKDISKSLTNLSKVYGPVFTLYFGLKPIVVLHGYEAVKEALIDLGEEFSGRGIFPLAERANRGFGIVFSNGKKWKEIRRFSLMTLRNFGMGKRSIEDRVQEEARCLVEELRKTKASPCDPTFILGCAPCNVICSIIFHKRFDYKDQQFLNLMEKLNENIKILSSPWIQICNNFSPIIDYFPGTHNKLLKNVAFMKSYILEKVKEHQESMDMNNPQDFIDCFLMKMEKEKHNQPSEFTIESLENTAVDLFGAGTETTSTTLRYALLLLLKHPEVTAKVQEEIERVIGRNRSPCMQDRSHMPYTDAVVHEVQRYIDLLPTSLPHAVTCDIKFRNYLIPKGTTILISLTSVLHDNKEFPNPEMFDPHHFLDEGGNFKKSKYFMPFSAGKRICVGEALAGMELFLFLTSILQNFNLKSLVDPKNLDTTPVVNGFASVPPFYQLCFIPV
Experiment: biochemical
Settings: not given

SMILES	AC50 [µM]
CC(=O)c1ccc(O)cc1 [4-Hydroxyacetophenone]	36.2
Cc1cc2c(cc1S(N)(=O)=O)S(=O)(=O)CCC2 [Meticrane]	8.15 ± 1.47

Same assay, conditions: CYP2C9 AC50 (half-maximal activity concentration)

SMILES	AC50 [µM]
NS(=O)(=O)c1cc2c(cc1Cl)CN(C1CCCCC1)C2=O [Chlorexolone]	14.4
CCC(=O)c1ccc(O)cc1 [Paroxypropione]	15.6
Cc1cc(C)nc(NS(=O)(=O)c2ccc(N)cc2)n1 [Sulfamethazine]	54.8

Biological target: T2, human CYP2C9
Experiment: not given
Settings: not given

SMILES	AC50 [µM]	CYP2C9 AC50 (half-maximal activity concentration)
c1ccc(SCCSc2ccccc2)cc1 [1,2-Bis(phenylthio)ethane]	31.4	–
O=C(O)c1ccc(OCCCOc2ccc(C(=O)O)cc2)cc1 [1,3-Bis(4-carboxyphenoxy)propane]	–	Inactive
C=C(C)C(=O)OCCCCCCOC(=O)C(=C)C [1,6-Hexanediol dimethacrylate]	37.4	–
C=C(C)C(=O)OCCCCCCCCCCOC(=O)C(=C)C [1,10-Decanediol dimethacrylate]	–	Inconclusive inhibitor
BrCc1cccc(Oc2ccccc2)c1 [1-(Bromomethyl)-3-phenoxybenzene]	82.9	–
CCCCCCCCS(=O)(=O)Cl [1-Octanesulfonyl chloride]	28.7	–
O=C1NC(=O)c2cccc3cccc1c23 [1H-Benzo[de]isoquinoline-1,3(2H)-dione]	33.1	–
COC(OC)(C(=O)c1ccccc1)c1ccccc1 [2,2-Dimethoxy-1,2-diphenylethanone]	22.5	–
O=C(c1ccc(O)c(O)c1)c1ccc(O)cc1O [2,3',4,4'-Tetrahydroxybenzophenone]	4.22	–
O=C(O)c1cc2ccccc2nc1C(=O)O [2,3-Quinolinedicarboxylic acid]	–	Inactive
O=C(c1ccc(O)cc1)c1ccc(O)cc1O [2,4,4'-Trihydroxybenzophenone]	3.18	–

Biological target: human CYP2C19 (Homo sapiens, UniProt P33261)
Sequence (P33261 whole entry): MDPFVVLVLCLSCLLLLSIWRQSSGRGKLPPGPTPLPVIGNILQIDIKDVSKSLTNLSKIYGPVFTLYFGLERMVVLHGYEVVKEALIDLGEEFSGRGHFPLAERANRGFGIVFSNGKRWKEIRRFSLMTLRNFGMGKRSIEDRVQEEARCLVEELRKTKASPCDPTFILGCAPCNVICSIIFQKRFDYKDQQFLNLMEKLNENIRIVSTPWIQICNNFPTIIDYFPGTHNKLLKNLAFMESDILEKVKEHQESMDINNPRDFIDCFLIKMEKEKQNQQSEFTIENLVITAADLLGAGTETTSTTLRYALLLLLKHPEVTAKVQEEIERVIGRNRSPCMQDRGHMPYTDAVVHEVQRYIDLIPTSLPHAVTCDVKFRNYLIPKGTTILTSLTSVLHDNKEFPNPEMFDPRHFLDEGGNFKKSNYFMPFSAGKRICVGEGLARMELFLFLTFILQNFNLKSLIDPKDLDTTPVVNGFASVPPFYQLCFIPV
Experiment: not given
Settings: not given

SMILES	AC50 [µM]	CYP2C19 AC50 (half-maximal activity concentration)
c1ccc(SCCSc2ccccc2)cc1 [1,2-Bis(phenylthio)ethane]	3.06	–
O=C(O)c1ccc(OCCCOc2ccc(C(=O)O)cc2)cc1 [1,3-Bis(4-carboxyphenoxy)propane]	–	Inactive
C=C(C)C(=O)OCCCCCCOC(=O)C(=C)C [1,6-Hexanediol dimethacrylate]	51.5	–
C=C(C)C(=O)OCCCCCCCCCCOC(=O)C(=C)C [1,10-Decanediol dimethacrylate]	–	Inconclusive inhibitor
BrCc1cccc(Oc2ccccc2)c1 [1-(Bromomethyl)-3-phenoxybenzene]	19.9	–
CCCCCCCCS(=O)(=O)Cl [1-Octanesulfonyl chloride]	–	Inconclusive inhibitor
O=C1NC(=O)c2cccc3cccc1c23 [1H-Benzo[de]isoquinoline-1,3(2H)-dione]	–	Inconclusive inhibitor
COC(OC)(C(=O)c1ccccc1)c1ccccc1 [2,2-Dimethoxy-1,2-diphenylethanone]	15.9	–
O=C(c1ccc(O)c(O)c1)c1ccc(O)cc1O [2,3',4,4'-Tetrahydroxybenzophenone]	33.2	–
O=C(O)c1cc2ccccc2nc1C(=O)O [2,3-Quinolinedicarboxylic acid]	–	Inactive
O=C(c1ccc(O)cc1)c1ccc(O)cc1O [2,4,4'-Trihydroxybenzophenone]	–	Inactive
CC(=O)c1ccc(O)cc1 [4-Hydroxyacetophenone]	–	Inactive
NS(=O)(=O)c1cc2c(cc1Cl)CN(C1CCCCC1)C2=O [Chlorexolone]	–	Inconclusive activator
NS(=O)(=O)c1cc2c(cc1Cl)NCNS2(=O)=O [Hydrochlorothiazide]	–	Inactive
Cc1cc2c(cc1S(N)(=O)=O)S(=O)(=O)CCC2 [Meticrane]	–	Inactive
CCC(=O)c1ccc(O)cc1 [Paroxypropione]	–	Inactive
Cc1cc(C)nc(NS(=O)(=O)c2ccc(N)cc2)n1 [Sulfamethazine]	–	Inactive

Biological target: CYP3A4 (Homo sapiens, UniProt P08684)
Sequence (P08684 whole entry): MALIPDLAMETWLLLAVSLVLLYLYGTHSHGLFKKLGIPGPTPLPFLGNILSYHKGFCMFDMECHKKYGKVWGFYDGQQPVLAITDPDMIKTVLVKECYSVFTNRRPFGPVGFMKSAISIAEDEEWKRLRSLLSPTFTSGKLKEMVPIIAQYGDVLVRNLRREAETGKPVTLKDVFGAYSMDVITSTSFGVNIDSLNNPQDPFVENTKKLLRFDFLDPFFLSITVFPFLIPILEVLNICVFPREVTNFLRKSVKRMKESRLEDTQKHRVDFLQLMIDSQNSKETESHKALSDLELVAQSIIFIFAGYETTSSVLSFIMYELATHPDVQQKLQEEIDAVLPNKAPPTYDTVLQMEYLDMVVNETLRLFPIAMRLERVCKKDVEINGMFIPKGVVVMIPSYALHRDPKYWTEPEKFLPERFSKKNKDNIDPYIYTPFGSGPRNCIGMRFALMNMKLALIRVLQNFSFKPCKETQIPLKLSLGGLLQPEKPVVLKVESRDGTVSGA
Experiment: not given
Settings: not given

SMILES	AC50 [µM]	CYP3A4 AC50 (half-maximal activity concentration)
c1ccc(SCCSc2ccccc2)cc1 [1,2-Bis(phenylthio)ethane]	8.36	–
O=C(O)c1ccc(OCCCOc2ccc(C(=O)O)cc2)cc1 [1,3-Bis(4-carboxyphenoxy)propane]	26.4	–
C=C(C)C(=O)OCCCCCCOC(=O)C(=C)C [1,6-Hexanediol dimethacrylate]	16.9	–
O=[N+]([O-])c1cccc2cccc([N+](=O)[O-])c12 [1,8-Dinitronaphthalene]	–	Inconclusive inhibitor
C=C(C)C(=O)OCCCCCCCCCCOC(=O)C(=C)C [1,10-Decanediol dimethacrylate]	46.2	–
BrCc1cccc(Oc2ccccc2)c1 [1-(Bromomethyl)-3-phenoxybenzene]	80	–
CCCCCCCCS(=O)(=O)Cl [1-Octanesulfonyl chloride]	22.9	–
O=C1NC(=O)c2cccc3cccc1c23 [1H-Benzo[de]isoquinoline-1,3(2H)-dione]	–	Inconclusive activator
COC(OC)(C(=O)c1ccccc1)c1ccccc1 [2,2-Dimethoxy-1,2-diphenylethanone]	10.2	–
O=C(c1ccc(O)c(O)c1)c1ccc(O)cc1O [2,3',4,4'-Tetrahydroxybenzophenone]	18.4	–
O=C(O)c1cc2ccccc2nc1C(=O)O [2,3-Quinolinedicarboxylic acid]	25.2	–
O=C(c1ccc(O)cc1)c1ccc(O)cc1O [2,4,4'-Trihydroxybenzophenone]	19.4	–
CC(=O)c1ccc(O)cc1 [4-Hydroxyacetophenone]	–	Inactive
NS(=O)(=O)c1cc2c(cc1Cl)CN(C1CCCCC1)C2=O [Chlorexolone]	–	Inactive
NS(=O)(=O)c1cc2c(cc1Cl)NCNS2(=O)=O [Hydrochlorothiazide]	–	Inactive
Cc1cc2c(cc1S(N)(=O)=O)S(=O)(=O)CCC2 [Meticrane]	–	Inactive
CCC(=O)c1ccc(O)cc1 [Paroxypropione]	–	Inactive
Cc1cc(C)nc(NS(=O)(=O)c2ccc(N)cc2)n1 [Sulfamethazine]	–	Inactive
